Each structure is given as a SMILES string. Counter-ions that a name gives are not always drawn.

The values below come from patent US20090069300A1, “ISOQUINOLINYL AND ISOINDOLINYL DERIVATIVES AS HISTAMINE-3 ANTAGONISTS” (Wyeth, priority 2007, published 2009).

In the first test the target is T1, Human Histamine H3 Receptor (Homo sapiens, UniProt Q9Y5N1).
T1 construct: expressed in transfected cells; host or cells: HEK293T (stably transfected; membranes prepared from the cells)
T1 sequence (Q9Y5N1 whole entry): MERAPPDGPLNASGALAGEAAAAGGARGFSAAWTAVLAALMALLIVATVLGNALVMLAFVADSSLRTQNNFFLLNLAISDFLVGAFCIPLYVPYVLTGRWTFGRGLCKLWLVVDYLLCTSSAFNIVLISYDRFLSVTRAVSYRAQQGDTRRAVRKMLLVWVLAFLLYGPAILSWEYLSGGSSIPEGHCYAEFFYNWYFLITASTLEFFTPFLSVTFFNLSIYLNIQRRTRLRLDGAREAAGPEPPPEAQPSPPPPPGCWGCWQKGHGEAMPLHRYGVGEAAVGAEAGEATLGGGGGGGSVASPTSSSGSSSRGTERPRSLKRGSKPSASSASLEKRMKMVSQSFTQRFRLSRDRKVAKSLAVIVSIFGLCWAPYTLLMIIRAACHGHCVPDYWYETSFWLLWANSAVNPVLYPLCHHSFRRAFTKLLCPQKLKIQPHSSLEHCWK
The experiment in a line: Methyl histamine binding in human histamine H3 receptor cell line. The settings on record: membranes of stably transfected HEK293T cells; methyl histamine radioligand 1 nM; one hour incubation at 30° C.; Ki from IC50 by Cheng-Prusoff; read-out: H3 Binding Ki. Here is the method:
Evaluation of Methyl Histamine Binding in Human Histamine H3 Receptor Cell Line
The affinity of test compounds for the histamine 3 (H3) receptor is evaluated in the following manner. […] Cells are scraped from the plate, transferred to centrifuge tubes, washed one time in PBS by centrifugation in a Sorvall RT7 Plus centrifuge (2000 rpm 10 minutes, 4° C.). The resulting pellets are stored at −80° C. until ready for use. Cells are re-suspended in buffer (50 mM Tris pH=7.5) and placed in a Dounce homogenizer, douncing ten times to homogenize cells. The homogenate is spun down by centrifugation (Sorvall RT7 Plus, 1800 rpm 10 minutes, 4° C.). The supernatant is placed in a Corex tube and spun down by centrifugation (Sorvall RC 5c Plus, 17,000 rpm 20 minutes, 4° C.). The pellet is resuspended in buffer (50 mM Tris, pH 7.5). Protein concentration (ug/ul) is determined using the Micro-BCA Protein Determination. The binding assay is set up in a 96 well microtiter plate in a total volume of 250 uL. Non-specific binding is determined in the presence of 10 uM clobenpropit. The final radioligand concentration is 1 nM. The test compound is serially diluted using the Beckman Biomek2000 to a final approximate range of 100 uM to 100 pM. Membranes are suspended in buffer, homogenized in 2 bursts of ten seconds using a Vitris mechanical homogenizer set at power setting 5. Ten μg of membranes are added to each well. Following a one hour incubation at 30° C., the reaction is terminated by the addition of ice cold buffer and rapid filtration with a Packard Filtermate Harvester through a GF/B filter pre-soaked with 1% PEI for one hour. The plate is dried for one hour at 37° C. and 60 μL Microscint Scintillant is added to each well. The CPM per well is measured on a Packard Top Count NXT. Ki values are determined in nM. […] CPM values are expressed as % specific binding and plotted vs compound concentration. A curve is fitted using a four-parameter logistic fit and the IC50 value is determined. The Ki is calculated from this using the Cheng-Prusoff equation: […]=IC50/1+(L/Kd) where L=concentration of free radioligand used in the assay, and Kd is the dissociation constant of the radioligand for the receptor. L is determined for each experiment by counting an aliquot of the diluted radioligand (corresponding to that added to each well) and the Kd has previously been determined under identical conditions for this cell line/radioligand.
Consider `COC(=O)c1ccc(-c2ccc3c(c2)CCN(CCN2CCC[C@H]2C)C3=O)cc1` [Example 25, methyl 4-(2-{2-[(2R)-2-methylpyrrolidin-1-yl]ethyl}-1-oxo-1,2,3,4-tetrahydroiso-quinolin-6-yl)benzoate], for which the Ki is less than 10 nM.

The test is the same for the next values; noted with them: read-out: H3 Binding Ki.
For `O=C1c2ccc(-c3ccc(F)cc3)cc2CCN1CCN1CCCC1` [Example 9, 6-(4-fluorophenyl)-2-(2-pyrrolidin-1-ylethyl)-3,4-dihydroiso-quinolin-1(2H)-one Hydrochloride], the Ki lay in the range of 10.1 to 25 nM.
On to `O=C1c2ccc(-c3cc(F)cc(F)c3)cc2CCN1CCN1CCCC1` [Example 10, 6-(3,5-difluorophenyl)-2-(2-pyrrolidin-1-ylethyl)-3,4-dihydroisoquinolin-1(2H)-one], for which the Ki is less than 10 nM.
On the same count and under the same terms, under `O=C1c2ccc(-c3ccc(F)cc3F)cc2CCN1CCN1CCCC1` [Example 11, 6-(2,4-difluorophenyl)-2-(2-pyrrolidin-1-ylethyl)-3,4-dihydroisoquinolin-1(2H)-one] stands less than 10 nM; under `O=C1c2ccc(-c3ccccc3F)cc2CCN1CCN1CCCC1` [Example 12, 6-(2-fluorophenyl)-2-(2-pyrrolidin-1-ylethyl)-3,4-dihydroisoquinolin-1(2H)-one], 10.1 to 25 nM.
Consider `O=C1c2ccc(-c3cccc(OC(F)(F)F)c3)cc2CCN1CCN1CCCC1` [Example 13, 2-(2-pyrrolidin-1-ylethyl)-6-[3-(trifluoromethoxy)phenyl]-3,4-dihydroisoquinolin-1(2H)-one], for which the Ki fell in the range of 25.1 to 50 nM.
Same read-out and setting: under `O=C1c2ccc(-c3ccc(OC(F)(F)F)cc3)cc2CCN1CCN1CCCC1` [Example 14, 2-(2-pyrrolidin-1-ylethyl)-6-[4-(trifluoromethoxy)phenyl]-3,4-dihydroisoquinolin-1(2H)-one] stands 10.1 to 25 nM; under `N#Cc1cccc(-c2ccc3c(c2)CCN(CCN2CCCC2)C3=O)c1` [Example 15, 3-[1-oxo-2-(2-pyrrolidin-1-ylethyl)-1,2,3,4-tetrahydroisoquinolin-6-yl]benzonitrile], less than 10 nM.
On the same count and under the same terms, then `O=C1c2ccc(-c3ccccc3)cc2CCN1CCN1CCCC1` [Example 16, 6-phenyl-2-(2-pyrrolidin-1-ylethyl)-3,4-dihydroisoquinolin-1(2H)-one], with 10.1 to 25 nM; and `O=C1c2ccc(-c3ccc(F)c(F)c3)cc2CCN1CCN1CCCC1` [Example 17, 6-(3,4-difluorophenyl)-2-(2-pyrrolidin-1-ylethyl)-3,4-dihydroisoquinolin-1(2H)-one], with less than 10 nM.
Consider `O=C1c2ccc(-c3cccc(F)c3)cc2CCN1CCN1CCCC1` [Example 18, 6-(3-fluorophenyl)-2-(2-pyrrolidin-1-ylethyl)-3,4-dihydroisoquinolin-1(2H)-one], for which the Ki is 10.1 to 25 nM.
The same measure, in the same setting: then `N#Cc1ccc(-c2ccc3c(c2)CCN(CCN2CCCC2)C3=O)cc1` [Example 19, 4-[1-oxo-2-(2-pyrrolidin-1-ylethyl)-1,2,3,4-tetrahydroisoquinolin-6-yl]benzonitrile], with less than 10 nM; and `O=C1c2ccc(-c3cccc(C(F)(F)F)c3)cc2CCN1CCN1CCCC1` [Example 20, 2-(2-pyrrolidin-1-ylethyl)-6-[3-(trifluoromethyl)phenyl]-3,4-dihydroisoquinolin-1(2H)-one], with less than 10 nM; and `O=C1c2ccc(-c3ccc4c(c3)OCO4)cc2CCN1CCN1CCCC1` [Example 21, 6-(1,3-benzodioxol-5-yl)-2-(2-pyrrolidin-1-ylethyl)-3,4-dihydroisoquinolin-1(2H)-one], with 10.1 to 25 nM.
Still for that read-out and setting: under `O=C1c2ccc(-c3ccc(C(F)(F)F)cc3)cc2CCN1CCN1CCCC1` [Example 22, 2-(2-pyrrolidin-1-ylethyl)-6-[4-(trifluoromethyl)phenyl]-3,4-dihydroisoquinolin-1(2H)-one] stands less than 10 nM.
Turning to `COc1ccc(-c2ccc3c(c2)CCN(CCN2CCCC2)C3=O)cc1` [Example 23, 6-(4-methoxyphenyl)-2-(2-pyrrolidin-1-ylethyl)-3,4-dihydroisoquinolin-1(2H)-one], the Ki is less than 10 nM.
In the case of `C[C@@H]1CCCN1CCN1CCc2ccc(-c3ccc(C#N)cc3)cc2C1=O` [Example 26, 4-(2-{2-[(2R)-2-methylpyrrolidin-1-yl]ethyl}-1-oxo-1,2,3,4-tetrahydroisoquinolin-7-yl)benzonitrile], the Ki is less than 10 nM.
The same measure, in the same setting: under `C[C@@H]1CCCN1CCN1CCc2c(cccc2-c2cccc(C#N)c2)C1=O` [Example 27, 3-(2-{2-[(2R)-2-methylpyrrolidin-1-yl]ethyl}-1-oxo-1,2,3,4-tetrahydroisoquinolin-5-yl)benzonitrile] stands 50.1 to 100 nM; under `C[C@@H]1CCCN1CCN1CCc2c(cccc2-c2ccc(C#N)cc2)C1=O` [Example 28, 4-(2-{2-[(2R)-2-methylpyrrolidin-1-yl]ethyl}-1-oxo-1,2,3,4-tetrahydroisoquinolin-5-yl)benzonitrile], 10.1 to 25 nM.
On the same count and under the same terms, under `N#Cc1ccc(-c2ccc3c(c2)CCN(CCCN2CCCC2)C3=O)cc1` [Example 32, 4-[1-oxo-2-(3-pyrrolidin-1-ylpropyl)-1,2,3,4-tetrahydroisoquinolin-6-yl]benzonitrile] stands less than 10 nM.
Regarding `N#Cc1cccc(-c2ccc3c(c2)CCN(CCCN2CCCC2)C3=O)c1` [Example 33, 3-[1-oxo-2-(3-pyrrolidin-1-ylpropyl)-1,2,3,4-tetrahydroisoquinolin-6-yl]benzonitrile], the Ki fell in the range of 25.1 to 50 nM.
The same measure, in the same setting: then `O=C1c2ccc(-c3ccncc3)cc2CCN1CCN1CCCC1` [Example 34, 6-pyridin-4-yl-2-(2-pyrrolidin-1-ylethyl)-3,4-dihydroisoquinolin-1(2)-one Hydrochloride], with less than 10 nM; and `N#Cc1ccc2c(ccn2-c2ccc3c(c2)CCN(CCN2CCCC2)C3=O)c1` [Example 35, 1-[1-oxo-2-(2-pyrrolidin-1-ylethyl)-1,2,3,4-tetrahydroisoquinolin-6-yl]-1H-indole-5-carbonitrile Hydrochloride], with less than 10 nM; and `O=C1c2ccc(-n3cccn3)cc2CCN1CCN1CCCC1` [Example 37, 6-(1H-pyrazol-1-yl)-2-(2-(pyrrolidin-1-yl)ethyl)-3,4-dihydroisoquinolin-1(2H)-one hydrochloride], with 10.1 to 25 nM.
Same read-out and setting: under `O=C(c1ccc2c(c1)CCN(CCN1CCCC1)C2=O)N1CCCC1` [Example 38, 6-(pyrrolidin-1-ylcarbonyl)-2-(2-pyrrolidin-1-ylethyl)-3,4-dihydroisoquinolin-1(2H)-one hydrochloride] stands 10.1 to 25 nM; under `C[C@H]1CCCN1CCN1CCc2cc(-c3ccc(F)cc3)ccc2C1=O` [Example 39, 6-(4-fluorophenyl)-2-{2-[(2S)-2-methylpyrrolidin-1-yl]ethyl}-3,4-dihydroiso-quinolin-1(2H)-one hydrochloride], 10.1 to 25 nM; under `C[C@@H]1CCCN1CCN1CCc2cc(-c3ccc(F)cc3)ccc2C1=O` [Example 40, 6-(4-fluorophenyl)-2-{2-[(2R)-2-methylpyrrolidin-1-yl]ethyl}-3,4-dihydroisoquinolin-1(2H)-one], less than 10 nM.
Same read-out and setting: under `O=C1c2ccc(-c3ccc(F)cc3)cc2CCN1CCN1CCCCC1` [Example 43, 6-(4-fluorophenyl)-2-(2-piperidin-1-ylethyl)-3,4-dihydroiso-quinolin-1(2H)-one hydrochloride] stands less than 10 nM.

In general, Ki refers to a dissociation constant, usually derived from enzyme kinetics or from competition with a known ligand.
